Legend:
[1] = biological target: T1, Bifunctional epoxide hydrolase 2 (Mus musculus, UniProt P34914); assay: Inhibition of C57BL/6J mouse cortex sEH using 14,15-EET as substrate preincubated for 15 mins followed by substrate addition measured after 2 hrs by UPLC-MS/MS analysis
T1 sequence (P34914 whole entry): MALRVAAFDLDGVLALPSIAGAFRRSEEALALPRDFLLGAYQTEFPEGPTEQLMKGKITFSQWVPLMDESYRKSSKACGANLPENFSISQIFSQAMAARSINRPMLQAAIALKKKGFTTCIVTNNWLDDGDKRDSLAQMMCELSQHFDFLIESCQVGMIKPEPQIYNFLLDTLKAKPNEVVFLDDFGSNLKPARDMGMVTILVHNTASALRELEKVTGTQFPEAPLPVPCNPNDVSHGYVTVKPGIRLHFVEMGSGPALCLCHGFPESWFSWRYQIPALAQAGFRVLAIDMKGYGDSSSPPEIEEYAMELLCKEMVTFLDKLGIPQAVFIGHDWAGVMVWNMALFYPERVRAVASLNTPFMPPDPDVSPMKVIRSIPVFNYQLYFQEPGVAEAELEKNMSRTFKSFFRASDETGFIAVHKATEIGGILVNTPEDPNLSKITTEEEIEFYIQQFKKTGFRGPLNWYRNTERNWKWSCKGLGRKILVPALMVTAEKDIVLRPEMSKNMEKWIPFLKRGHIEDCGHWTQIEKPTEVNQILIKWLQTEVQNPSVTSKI

[2] = species: Mus musculus; assay: animal or person; details: BALB/c, 4 h, read-out: INH
[3] = Cytotoxicity against HEK293T cells incubated overnight by CCK8 assay; details: human
[4] = Cytotoxicity against human HepG2 cells incubated overnight by CCK8 assay
[5] = species: Mus musculus; assay: animal or person; details: BALB/c, 3 h, read-out: INH
Description: Anti-inflammatory activity in BALB/c mouse model of Carrageenan-induced paw edema assessed as inhibition of edema at 5 mg/kg, ip measured after 3 hrs relative to control

[6] = species: Mus musculus; assay: animal or person; details: BALB/c, 2 h, read-out: INH
Description: Anti-inflammatory activity in BALB/c mouse model of Carrageenan-induced paw edema assessed as inhibition of edema at 5 mg/kg, ip measured after 2 hrs relative to control

[7] = species: Mus musculus; assay: animal or person; details: BALB/c, 6 h, read-out: INH
Description: Anti-inflammatory activity in BALB/c mouse model of Carrageenan-induced paw edema assessed as inhibition of edema at 5 mg/kg, ip measured upto 6 hrs relative to control

[8] = species: Mus musculus; assay: animal or person; details: BALB/c, po, 1 h, read-out: INH
Description: Anti-inflammatory activity in BALB/c mouse model of Carrageenan-induced paw edema assessed as inhibition of edema at 20 mg/kg, IG measured after 1 hr relative to control

| IC50 [1] | SMILES | other results |
| --- | --- | --- |
| 387 nM | CC1(C)[C@@H](O[C@H]2O[C@H](CO)[C@@H](O)[C@H](O)[C@H]2O)CC[C@]2(C)[C@H]3C(=O)C=C4[C@@H]5C[C@@](C)(CNC(=O)NCC6CCOCC6)CC[C@]5(C)CC[C@@]4(C)[C@]3(C)CC[C@@H]12 |  |
| 542 nM | CC1(C)[C@@H](O[C@@H]2O[C@H](CO)[C@H](O)[C@H](O)[C@H]2O)CC[C@]2(C)[C@H]3C(=O)C=C4[C@H]5C[C@@](C)(CNC(=O)NCC6CCOCC6)CC[C@]5(C)CC[C@@]4(C)[C@]3(C)CC[C@@H]12 |  |
| 152 nM | CCC(=O)N1CCC(CNC(=O)NC[C@@]2(C)CC[C@]3(C)CC[C@]4(C)C(=CC(=O)[C@@H]5[C@@]6(C)CC[C@H](O[C@@H]7O[C@H](CO)[C@@H](O)[C@H](O)[C@@H]7O)C(C)(C)[C@@H]6CC[C@]54C)[C@H]3C2)CC1 |  |
| 450 nM | CC1(C)[C@@H](O[C@H]2OC[C@@H](O)[C@H](O)[C@H]2O)CC[C@]2(C)[C@H]3C(=O)C=C4[C@H]5C[C@@](C)(CNC(=O)NCC6CCOCC6)CC[C@]5(C)CC[C@@]4(C)[C@]3(C)CC[C@@H]12 |  |
| 5.2 nM | CC1(C)[C@@H](O)CC[C@]2(C)[C@H]3C(=O)C=C4[C@H]5C[C@@](C)(CNC(=O)NCC6CCOCC6)CC[C@]5(C)CC[C@@]4(C)[C@]3(C)CC[C@@H]12 | inhibition in vivo at 20 mg/kg [2]: 28.4%; IC50 [3]: > 50000 nM; IC50 [4]: > 50000 nM |
| 174 nM | CCC(=O)N1CCC(CNC(=O)NC[C@@]2(C)CC[C@]3(C)CC[C@]4(C)C(=CC(=O)[C@@H]5[C@@]6(C)CC[C@H](O[C@@H]7O[C@H](CO)[C@@H](O)[C@H](O)[C@@H]7O)C(C)(C)[C@@H]6CC[C@]54C)[C@@H]3C2)CC1 |  |
| 151 nM | CCC(=O)N1CCC(CNC(=O)NC[C@@]2(C)CC[C@]3(C)CC[C@]4(C)C(=CC(=O)[C@@H]5[C@@]6(C)CC[C@H](O[C@H]7O[C@H](CO)[C@@H](O)[C@H](O)[C@@H]7O)C(C)(C)[C@@H]6CC[C@]54C)[C@H]3C2)CC1 |  |
| 160 nM | CC1(C)[C@@H](O[C@@H]2O[C@H](CO)[C@@H](O)[C@H](O)[C@@H]2O)CC[C@]2(C)[C@H]3C(=O)C=C4[C@H]5C[C@@](C)(CNC(=O)NCC6CCOCC6)CC[C@]5(C)CC[C@@]4(C)[C@]3(C)CC[C@@H]12 |  |
| 301 nM | CC1(C)[C@@H](O[C@@H]2O[C@H](CO)[C@@H](O)[C@H](O)[C@H]2O)CC[C@]2(C)[C@H]3C(=O)C=C4[C@H]5C[C@@](C)(CNC(=O)NCC6CCOCC6)CC[C@]5(C)CC[C@@]4(C)[C@]3(C)CC[C@@H]12 | inhibition in vivo at 5 mg/kg [5]: 42.4%; inhibition in vivo at 5 mg/kg [6]: 43.2% |
| 7.7 nM | CC1(C)[C@@H](O)CC[C@]2(C)[C@H]3C(=O)C=C4[C@@H]5C[C@@](C)(CNC(=O)NCC6CCOCC6)CC[C@]5(C)CC[C@@]4(C)[C@]3(C)CC[C@@H]12 | inhibition in vivo at 20 mg/kg [2]: 27.2% |
| 446 nM | CC1(C)[C@@H](O[C@@H]2O[C@H](CO)[C@@H](O)[C@H](O)[C@H]2O)CC[C@]2(C)[C@H]3C(=O)C=C4[C@@H]5C[C@@](C)(CNC(=O)NCC6CCOCC6)CC[C@]5(C)CC[C@@]4(C)[C@]3(C)CC[C@@H]12 |  |
| 2270 nM | CC1(C)[C@@H](O[C@H]2O[C@H](CO)[C@@H](O)[C@H](O)[C@H]2O)CC[C@]2(C)[C@H]3C(=O)C=C4[C@@H]5C[C@@](C)(CNC(=O)NCC6CCC(OC(F)(F)F)CC6)CC[C@]5(C)CC[C@@]4(C)[C@]3(C)CC[C@@H]12 (stereo partly drawn) |  |
| 442 nM | CC1(C)[C@@H](O[C@H]2O[C@H](CO)[C@@H](O)[C@H](O)[C@H]2O)CC[C@]2(C)[C@H]3C(=O)C=C4[C@H]5C[C@@](C)(CNC(=O)NCC6CCOCC6)CC[C@]5(C)CC[C@@]4(C)[C@]3(C)CC[C@@H]12 | inhibition in vivo at 5 mg/kg [7]: 40.3% |
| 435 nM | CC1(C)[C@@H](O[C@@H]2OC[C@@H](O)[C@H](O)[C@H]2O)CC[C@]2(C)[C@H]3C(=O)C=C4[C@H]5C[C@@](C)(CNC(=O)NCC6CCOCC6)CC[C@]5(C)CC[C@@]4(C)[C@]3(C)CC[C@@H]12 |  |
| 114 nM | CC1(C)[C@@H](O[C@@H]2OC[C@@H](O)[C@@H](O)[C@@H]2O)CC[C@]2(C)[C@H]3C(=O)C=C4[C@H]5C[C@@](C)(CNC(=O)NCC6CCOCC6)CC[C@]5(C)CC[C@@]4(C)[C@]3(C)CC[C@@H]12 |  |
| 310 nM | CC1(C)[C@@H](O[C@H]2O[C@H](CO)[C@H](O)[C@H](O)[C@H]2O)CC[C@]2(C)[C@H]3C(=O)C=C4[C@H]5C[C@@](C)(CNC(=O)NCC6CCOCC6)CC[C@]5(C)CC[C@@]4(C)[C@]3(C)CC[C@@H]12 |  |
| 182 nM | CCC(=O)N1CCC(CNC(=O)NC[C@@]2(C)CC[C@]3(C)CC[C@]4(C)C(=CC(=O)[C@@H]5[C@@]6(C)CC[C@H](O[C@H]7O[C@H](CO)[C@@H](O)[C@H](O)[C@@H]7O)C(C)(C)[C@@H]6CC[C@]54C)[C@@H]3C2)CC1 | inhibition in vivo at 20 mg/kg [8]: 38.4% |

The next lines start with the compound.

| SMILES | IC50 [1] | other results |
| --- | --- | --- |
| CC1(C)[C@@H](O[C@H]2O[C@H](CO)[C@@H](O)[C@H](O)[C@H]2O)CC[C@]2(C)[C@H]3C(=O)C=C4[C@H]5C[C@@](C)(CNC(=O)NCc6ccc(OC(F)(F)F)cc6)CC[C@]5(C)CC[C@@]4(C)[C@]3(C)CC[C@@H]12 | 5630 nM |  |
| CC1(C)[C@@H](O[C@@H]2O[C@H](CO)[C@@H](O)[C@H](O)[C@H]2O)CC[C@]2(C)[C@H]3C(=O)C=C4[C@@H]5C[C@@](C)(CNC(=O)NCC6CCC(OC(F)(F)F)CC6)CC[C@]5(C)CC[C@@]4(C)[C@]3(C)CC[C@@H]12 (stereo partly drawn) | 2120 nM |  |
| CCC(=O)N1CCC(CNC(=O)NC[C@@]2(C)CC[C@]3(C)CC[C@]4(C)C(=CC(=O)[C@@H]5[C@@]6(C)CC[C@H](O)C(C)(C)[C@@H]6CC[C@]54C)[C@@H]3C2)CC1 | 5.6 nM |  |
| CC1(C)[C@@H](O)CC[C@]2(C)[C@H]3C(=O)C=C4[C@@H]5C[C@@](C)(CNC(=O)NCc6ccc(S(C)(=O)=O)cc6)CC[C@]5(C)CC[C@@]4(C)[C@]3(C)CC[C@@H]12 | 15.9 nM |  |
| CC(C)CNC(=O)NC[C@@]1(C)CC[C@]2(C)CC[C@]3(C)C(=CC(=O)[C@@H]4[C@@]5(C)CC[C@H](O)C(C)(C)[C@@H]5CC[C@]43C)[C@H]2C1 | 13.4 nM |  |
| CC1(C)[C@@H](O[C@@H]2O[C@H](CO)[C@@H](O)[C@H](O)[C@H]2O)CC[C@]2(C)[C@H]3C(=O)C=C4[C@H]5C[C@@](C)(CNC(=O)NCc6ccc(OC(F)(F)F)cc6)CC[C@]5(C)CC[C@@]4(C)[C@]3(C)CC[C@@H]12 | 3720 nM |  |
| CC1(C)C(=O)CC[C@]2(C)[C@H]3C(=O)C=C4[C@@H]5C[C@@](C)(CNC(=O)NCC6CCOCC6)CC[C@]5(C)CC[C@@]4(C)[C@]3(C)CC[C@@H]12 | 18.9 nM |  |
| CC1(C)[C@@H](O)CC[C@]2(C)[C@H]3C(=O)C=C4[C@@H]5C[C@@](C)(CNC(=O)NCc6ccc(OC(F)(F)F)cc6)CC[C@]5(C)CC[C@@]4(C)[C@]3(C)CC[C@@H]12 | 8.6 nM |  |
| CC1(C)[C@@H](O)CC[C@]2(C)[C@H]3C(=O)C=C4[C@H]5C[C@@](C)(CNC(=O)NCc6ccc(S(N)(=O)=O)cc6)CC[C@]5(C)CC[C@@]4(C)[C@]3(C)CC[C@@H]12 | 13 nM |  |
| CCC(=O)N1CCC(CNC(=O)NC[C@@]2(C)CC[C@]3(C)CC[C@]4(C)C(=CC(=O)[C@@H]5[C@@]6(C)CC[C@H](O)C(C)(C)[C@@H]6CC[C@]54C)[C@H]3C2)CC1 | 9.9 nM |  |
| CC(C)CNC(=O)NC[C@@]1(C)CC[C@]2(C)CC[C@]3(C)C(=CC(=O)[C@@H]4[C@@]5(C)CC[C@H](O)C(C)(C)[C@@H]5CC[C@]43C)[C@@H]2C1 | 20.5 nM |  |
| CC1(C)[C@@H](O)CC[C@]2(C)[C@H]3C(=O)C=C4[C@H]5C[C@@](C)(CNC(=O)NCc6ccc(S(C)(=O)=O)cc6)CC[C@]5(C)CC[C@@]4(C)[C@]3(C)CC[C@@H]12 | 9.7 nM |  |
| CC(C)CNC(=O)NC[C@@]1(C)CC[C@]2(C)CC[C@]3(C)C(=CC[C@@H]4[C@@]5(C)CC[C@H](O)C(C)(C)[C@@H]5CC[C@]43C)[C@@H]2C1 | 6.6 nM |  |
| CC1(C)[C@@H](O)CC[C@]2(C)[C@H]3C(=O)C=C4[C@@H]5C[C@@](C)(CNC(=O)NCc6ccc(S(N)(=O)=O)cc6)CC[C@]5(C)CC[C@@]4(C)[C@]3(C)CC[C@@H]12 | 19.8 nM |  |
| CC[C@H](C)C(=O)N1CCC(NC(=O)Nc2ccc(OC(F)(F)F)c(F)c2)CC1 |  | inhibition in vivo at 5 mg/kg [7]: 39.2% |
| CC1(C)[C@@H](O)CC[C@]2(C)[C@H]3CC=C4[C@@H]5C[C@@](C)(CNC(=O)NCC6CCOCC6)CC[C@]5(C)CC[C@@]4(C)[C@]3(C)CC[C@@H]12 | 10.3 nM |  |
| CC1(C)C(=O)CC[C@]2(C)[C@H]3C(=O)C=C4[C@H]5C[C@@](C)(CNC(=O)NCC6CCOCC6)CC[C@]5(C)CC[C@@]4(C)[C@]3(C)CC[C@@H]12 | 13.4 nM |  |
| CC1(C)[C@@H](O)CC[C@]2(C)[C@H]3C(=O)C=C4[C@H]5C[C@@](C)(CNC(=O)NCc6ccc(OC(F)(F)F)cc6)CC[C@]5(C)CC[C@@]4(C)[C@]3(C)CC[C@@H]12 | 16.9 nM |  |

From ChEMBL document CHEMBL6092185, “Discovery of glycosidated glycyrrhetinic acid derivatives: Natural product-based soluble epoxide hydrolase inhibitors” (Eur J Med Chem, 2024)
